Some test systems named below: CCRF-CEM; COLO 205; HCT-15; HL-60; HOP-62; HT-29; KM12; NCI-H226; NCI-H460; OVCAR-4; OVCAR-5; OVCAR-8; SF-268; SK-MEL-28; SK-MEL-5; SN12C; UACC-257; UO-31; ACHN; M14.
Experiment in all cases: growth of human tumour cells (NCI), 48 h

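Where inhibition never reached the appropriate level, the endpoint shown equals the highest concentration tested. Otherwise, values were interpolated linearly from a five-concentration, 48-hour dose response in 96-well plates. Here, GI50 denotes the concentration required for 50% inhibition of growth.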 The source made the active and inactive calls. Rule as the data show it: active = GI50 up to about 1.1 µM and inactive = higher.

Regarding `O=NN1C(c2ccccc2)CNC(=O)CC1c1ccccc1` (configuration not stated), the GI50 with CCRF-CEM was 35.3 µM (inactive); with COLO 205, 25.8 µM (inactive); with HCT-15 it was 36 µM; in the experiment with HL-60 it was 21.9 µM (inactive); in the experiment on HOP-62, 37.6 µM (inactive); in the experiment with HT-29 it was 28.6 µM (inactive). The GI50 is 42.9 µM (inactive) in the experiment with KM12; 68.5 µM (inactive) with NCI-H226; 36.2 µM (inactive) with NCI-H460; 52.8 µM (inactive) with OVCAR-4; > 100 µM (inactive) in the experiment with OVCAR-5; 65.5 µM (inactive) in the experiment with OVCAR-8. Moreover, the GI50 was 78.5 µM (inactive) in the experiment with SF-268; 57.3 µM (inactive) in the experiment on SK-MEL-28; 25.3 µM (inactive) with SK-MEL-5; 53 µM (inactive) in the experiment on SN12C; 36.4 µM (inactive) in the experiment on UACC-257; 36.3 µM (inactive) with UO-31.

Regarding `COC1C(=[N+]=[N-])C(=O)NC(=O)N1C1OC(COC(c2ccccc2)(c2ccccc2)c2ccccc2)C(O)C1O` (configuration not stated), the GI50 is 18.1 µM (inactive) in the experiment on ACHN; 16.5 µM (inactive) in the experiment with CCRF-CEM; 19.6 µM (inactive) in the experiment with COLO 205; 18 µM in the experiment with HCT-15; 23.2 µM (inactive) in the experiment on HL-60; 22.7 µM (inactive) in the experiment on HOP-62. Besides, the GI50 is 18.7 µM (inactive) in the experiment on HT-29; 16.9 µM (inactive) in the experiment on KM12; 19 µM (inactive) in the experiment with M14; 17.5 µM (inactive) in the experiment on NCI-H226; 25.4 µM (inactive) in the experiment with NCI-H460; 14.2 µM (inactive) in the experiment on OVCAR-4. Moreover, the GI50 was 17.8 µM (inactive) in the experiment on OVCAR-5; 19.2 µM (inactive) in the experiment with OVCAR-8; 18.1 µM (inactive) in the experiment on SF-268; 16.4 µM (inactive) in the experiment with SK-MEL-28; 16.2 µM (inactive) in the experiment with SK-MEL-5; 16.3 µM (inactive) in the experiment on SN12C. The GI50 in the experiment with UACC-257 is > 10 µM (inactive); with UO-31 it was 18.2 µM (inactive).

For the compound `CCOC(=O)C(C(C)=O)C1CC=CC1` (configuration not stated), the GI50 in the experiment with ACHN is > 100 µM (inactive); in the experiment with CCRF-CEM, > 100 µM (inactive); with COLO 205 it was > 100 µM (inactive); in the experiment with HCT-15 it was greater than 100 µM; in the experiment with HL-60, > 100 µM (inactive); with HOP-62, > 100 µM (inactive). Also, the GI50 in the experiment with HT-29, in the experiment with KM12, with M14, in the experiment with NCI-H226, in the experiment on NCI-H460 and in the experiment with OVCAR-4 was > 100 µM (inactive) in each case. Besides, the GI50 in the experiment on OVCAR-5, in the experiment on OVCAR-8, in the experiment on SK-MEL-28, with SK-MEL-5, in the experiment on SN12C and with UACC-257 was > 100 µM (inactive) throughout. In addition, in the experiment on UO-31, the GI50 was > 100 µM (inactive).

For the compound `CC1(C)CCC[C@@]2(C)C1C[C@H](O)[C@@]1(C)O[C@@](C)([C@H](O)CO)CCC21` (some centres not stated), the GI50 with ACHN is 26 µM (inactive); with CCRF-CEM, 29.7 µM (inactive); in the experiment on COLO 205, 25.3 µM (inactive); with HCT-15, 45.5 µM; with HL-60 it was 24.9 µM (inactive); in the experiment on HOP-62, 62.7 µM (inactive). The GI50 in the experiment on HT-29 is 33 µM (inactive); in the experiment on KM12, 37.2 µM (inactive); in the experiment with M14, 34.6 µM (inactive); in the experiment with NCI-H226 it was 28.7 µM (inactive); with NCI-H460, 40.9 µM (inactive); with OVCAR-4, 35.7 µM (inactive). Moreover, the GI50 in the experiment on OVCAR-5 was 39.8 µM (inactive); with OVCAR-8, 39.3 µM (inactive); with SF-268 it was 30.4 µM (inactive); in the experiment on SK-MEL-28, 34.6 µM (inactive); in the experiment on SK-MEL-5, 20.9 µM (inactive); in the experiment on SN12C, 37.2 µM (inactive). In addition, the figures for the GI50 with UACC-257 and with UO-31 were 33.5 µM (inactive) and 26.1 µM (inactive), respectively.

`CC(=O)O[C@H]1CC[C@]2(C=O)[C@H]3CC[C@]4(C)[C@@H](C5=CC(=O)OC5)CC[C@]4(O)[C@@H]3CC[C@]2(O)C1` [STROPHANTHIDIN ACETATE]: the GI50 was 0.047 µM (active) in the experiment on ACHN; 0.0605 µM (active) in the experiment with CCRF-CEM; 0.378 µM (active) with COLO 205; 0.203 µM with HCT-15; 0.344 µM (active) in the experiment with HL-60; 0.226 µM (active) with HOP-62. The GI50 with HT-29 was 0.212 µM (active); in the experiment with KM12, 0.692 µM (active); in the experiment on M14, 0.416 µM (active); in the experiment with NCI-H226, 0.681 µM (active); in the experiment on NCI-H460, 0.0578 µM (active); in the experiment on OVCAR-4, 0.0998 µM (active). In addition, the GI50 was 0.575 µM (active) in the experiment on OVCAR-5; 0.267 µM (active) in the experiment on OVCAR-8; 0.171 µM (active) with SF-268; 0.774 µM (active) in the experiment on SK-MEL-28; 0.0923 µM (active) in the experiment with SK-MEL-5; 0.42 µM (active) in the experiment with SN12C. In addition, the GI50 with UACC-257 is 0.362 µM (active); with UO-31 it was 0.23 µM (active).
